Data published in the supplement of paper PMC10307832.

How the values were obtained:
Daporinad + Foretinib = compound: O=C(/C=C/c1cccnc1)NCCCCC1CCN(C(=O)c2ccccc2)CC1 [Daporinad] + COc1cc2c(Oc3ccc(NC(=O)C4(C(=O)Nc5ccc(F)cc5)CC4)cc3F)ccnc2cc1OCCCN1CCOCC1 [Foretinib] (partner 0.25 µM); assay: relative viability (nuclei count vs DMSO), 5 days (fraction); higher = more cells survive
Summary of the method: (§1)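 Lung cancer cell lines were seeded in 1536-well plates and dosed by pin tool the next day, with either a single drug or a fixed anchor-drug dose combined with five library-drug doses (not always all listed) spaced in √10 steps. Five days later, one step fixed the cells and stained their nuclei (final 0.05% Triton X-100, 1% formaldehyde, 1 ug/ml Hoechst), and nuclei were counted on 4× images. Relative viability is the nuclei count in treated wells divided by the count in vehicle wells, and each value is the median of duplicate plates.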

R406 + Navitoclax = compound: COc1cc(Nc2ncc(F)c(Nc3ccc4c(n3)NC(=O)C(C)(C)O4)n2)cc(OC)c1OC [R406] + CC1(C)CCC(c2ccc(Cl)cc2)=C(CN2CCN(c3ccc(C(=O)NS(=O)(=O)c4ccc(N[C@H](CCN5CCOCC5)CSc5ccccc5)c(S(=O)(=O)C(F)(F)F)c4)cc3)CC2)C1 [Navitoclax] (partner 0.5 µM); assay: as above
Summary of the method: as §1

Row | Cell Line | relative viability (Daporinad + Foretinib; first compound 0.0005 µM) | relative viability (Daporinad + Foretinib; first compound 0.001581 µM) | relative viability (Daporinad + Foretinib; first compound 0.005 µM) | relative viability (Daporinad + Foretinib; first compound 0.01581 µM) | relative viability (R406 + Navitoclax; first compound 0.08 µM) | relative viability (R406 + Navitoclax; first compound 0.253 µM) | relative viability (R406 + Navitoclax; first compound 0.8 µM) | relative viability (R406 + Navitoclax; first compound 2.53 µM) | relative viability (R406 + Navitoclax; first compound 8 µM)
1 | NCI-H661 | 0.999 | 1.03 | 0.671 | 0.573 |  |  |  |  | 
2 | NCI-H727 | 1.01 | 0.908 | 0.899 | 0.691 | 0.39 | 0.44 | 0.46 | 0.381 | 0.325
3 | NCI-H838 | 1.06 | 1.11 | 0.965 | 0.567 | 1.14 | 1.23 | 1.34 | 0.802 | 0.305
4 | NCI-H1299 | 1.12 | 1.08 | 1.14 | 1.04 | 1.01 | 1.06 | 1.05 | 1.11 | 0.995
5 | NCI-H1355 | 0.997 | 1.01 | 1.06 | 1.02 | 1.05 | 0.94 | 1.08 | 0.542 | 0.648
6 | NCI-H1395 | 1.08 | 0.954 | 1.01 | 1.15 | 1.18 | 1.18 | 1.49 | 0.881 | 0.947
7 | NCI-H1437 | 1.17 | 1.24 | 1.34 | 1.22 | 1.1 | 1.16 | 1.1 | 0.997 | 0.725
8 | NCI-H1563 | 0.893 | 0.972 | 0.999 | 0.86 |  |  |  |  | 
9 | NCI-H1650 | 1.29 | 1.21 | 1.13 | 0.498 | 1.3 | 1.15 | 1.5 | 1.24 | 0.747
10 | NCI-H1651 | 0.722 | 0.769 | 0.623 | 0.595 | 1.08 | 1.29 | 0.961 | 0.769 | 0.463
11 | NCI-H1666 | 0.962 | 0.958 | 0.91 | 0.943 | 0.627 | 0.879 | 0.932 | 0.941 | 0.413
12 | NCI-H1703 | 0.33 | 0.347 | 0.302 | 0.282 | 1.17 | 1.05 | 1.23 | 0.189 | 0.149
13 | NCI-H1734 | 0.871 | 0.875 | 0.938 | 0.679 | 0.789 | 0.982 | 1.13 | 0.813 | 0.607
14 | NCI-H1755 | 0.928 | 0.46 | 0.848 | 0.966 | 0.983 | 1.04 | 0.982 | 0.573 | 0.483
15 | NCI-H1792 |  |  |  |  | 0.536 | 0.804 | 0.89 | 0.6 | 0.582
16 | NCI-H1793 | 0.738 | 0.868 | 0.956 | 0.807 | 0.336 | 0.442 | 0.398 | 0.206 | 0.17
17 | NCI-H1915 | 1.16 | 1.07 | 1.17 | 1.08 | 0.769 | 0.799 | 0.789 | 0.707 | 0.662
18 | NCI-H1944 | 0.897 | 0.903 | 0.971 | 0.945 | 0.992 | 1.05 | 1.05 | 0.846 | 0.743
19 | NCI-H1975 | 0.892 | 0.952 | 0.966 | 0.931 | 1.02 | 1.2 | 1.19 | 0.503 | 0.237

Row | Cell Line | relative viability (Daporinad + Foretinib; first compound 0.0005 µM) | relative viability (Daporinad + Foretinib; first compound 0.001581 µM) | relative viability (Daporinad + Foretinib; first compound 0.005 µM) | relative viability (Daporinad + Foretinib; first compound 0.01581 µM) | relative viability (R406 + Navitoclax; first compound 0.08 µM) | relative viability (R406 + Navitoclax; first compound 0.253 µM) | relative viability (R406 + Navitoclax; first compound 0.8 µM) | relative viability (R406 + Navitoclax; first compound 2.53 µM) | relative viability (R406 + Navitoclax; first compound 8 µM)
20 | NCI-H1993 | 0.749 | 0.741 | 0.746 | 0.918 | 0.974 | 0.98 | 0.848 | 0.78 | 0.7
21 | NCI-H2009 | 1.16 | 1.24 | 1.23 | 0.897 | 1.21 | 1.23 | 1.25 | 1.16 | 1.03
22 | NCI-H2023 | 0.818 | 0.682 | 0.743 | 0.975 | 0.896 | 0.975 | 1.1 | 0.888 | 0.603
23 | NCI-H2085 | 0.872 | 0.973 | 1.11 | 0.781 | 1.13 | 1.16 | 1.28 | 1.01 | 0.667
24 | NCI-H2087 | 1.1 | 1.3 | 1.19 | 0.978 | 1.03 | 0.882 | 1.05 | 1.06 | 0.694
25 | NCI-H2126 | 1.24 | 1.15 | 1.06 | 1.34 | 0.88 | 0.83 | 0.829 | 0.8 | 0.64
26 | NCI-H2170 | 0.764 | 1.03 | 1.05 | 1.01 | 0.524 | 0.54 | 0.662 | 0.294 | 0.516
27 | NCI-H2228 | 0.904 | 0.82 | 1.24 | 1.09 | 1.17 | 1.33 | 0.996 | 0.628 | 0.168
28 | NCI-H2342 | 1.09 | 0.974 | 1.01 | 0.969 |  |  |  |  | 
29 | NCI-H2347 | 1.13 | 1.17 | 1.35 | 1.33 | 0.736 | 0.824 | 0.95 | 0.663 | 0.529
30 | NCI-H2405 | 1.16 | 1.08 | 1.13 | 1.05 | 0.823 | 0.844 | 0.928 | 0.691 | 0.156
31 | NCI-H3122 | 0.869 | 0.955 | 0.988 | 1.05 | 1.06 | 0.971 | 1.02 | 1.02 | 0.82
32 | PC-3 [JPC-3] | 0.978 | 1.03 | 1.12 | 1.05 | 0.828 | 0.819 | 0.833 | 0.685 | 0.6
33 | PC-14 | 0.985 | 1.06 | 1 | 1.01 | 1.01 | 1.05 | 1.04 | 0.984 | 0.836
34 | RERF-LC-KJ | 0.787 | 0.809 | 0.911 | 0.886 | 1.09 | 0.64 | 1.03 | 0.738 | 0.842
35 | SK-LU-1 | 0.908 | 0.872 | 0.922 | 0.829 | 0.483 | 1.2 | 0.725 | 0.385 | 0.145
36 | SK-MES-1 | 0.837 | 1.19 | 0.916 | 1.21 | 1.22 | 1.18 | 1.31 | 0.817 | 0.678
37 | SW 900 | 0.881 | 0.765 | 0.885 | 0.709 |  |  |  |  | 
38 | SW 1573 | 0.962 | 0.701 | 1.06 | 0.744 | 0.956 | 1.1 | 1.2 | 0.794 | 0.5
